Test results from the kinase profiling compilation of Christmann-Franck et al. (2016).

Experiments:
Assay in all cases: KINOMEscan competition binding
Settings in all cases: compound 10.0 µM
BLK (human) = BLK (human) (UniProt P51451)
BMPR1B (human) = BMPR1B (human) (UniProt O00238)
CAMK1G (human) = CAMK1G (human) (UniProt Q96NX5)
CDK13 (human) = CDK13 (human) (UniProt Q14004)
CDK4 CCND1 (human) = CDK4 CCND1 (human) (UniProt P11802+P24385)
CHEK1 (human) = CHEK1 (human) (UniProt O14757)
CLK1 (human) = CLK1 (human) (UniProt P49759)
CSNK1G3 (human) = CSNK1G3 (human) (UniProt Q9Y6M4)
DAPK3 (human) = DAPK3 (human) (UniProt O43293)
DCLK2 (human) = DCLK2 (human) (UniProt Q8N568)
[1] = test system: EGFR (human), P00533 [747-751 del / S ins]
EPHA5 (human) = EPHA5 (human) (UniProt P54756)
EPHB2 (human) = EPHB2 (human) (UniProt P29323)
ERN1 (human) = ERN1 (human) (UniProt O75460)
Sequence of ERN1 (human) (O75460 whole entry, looked up): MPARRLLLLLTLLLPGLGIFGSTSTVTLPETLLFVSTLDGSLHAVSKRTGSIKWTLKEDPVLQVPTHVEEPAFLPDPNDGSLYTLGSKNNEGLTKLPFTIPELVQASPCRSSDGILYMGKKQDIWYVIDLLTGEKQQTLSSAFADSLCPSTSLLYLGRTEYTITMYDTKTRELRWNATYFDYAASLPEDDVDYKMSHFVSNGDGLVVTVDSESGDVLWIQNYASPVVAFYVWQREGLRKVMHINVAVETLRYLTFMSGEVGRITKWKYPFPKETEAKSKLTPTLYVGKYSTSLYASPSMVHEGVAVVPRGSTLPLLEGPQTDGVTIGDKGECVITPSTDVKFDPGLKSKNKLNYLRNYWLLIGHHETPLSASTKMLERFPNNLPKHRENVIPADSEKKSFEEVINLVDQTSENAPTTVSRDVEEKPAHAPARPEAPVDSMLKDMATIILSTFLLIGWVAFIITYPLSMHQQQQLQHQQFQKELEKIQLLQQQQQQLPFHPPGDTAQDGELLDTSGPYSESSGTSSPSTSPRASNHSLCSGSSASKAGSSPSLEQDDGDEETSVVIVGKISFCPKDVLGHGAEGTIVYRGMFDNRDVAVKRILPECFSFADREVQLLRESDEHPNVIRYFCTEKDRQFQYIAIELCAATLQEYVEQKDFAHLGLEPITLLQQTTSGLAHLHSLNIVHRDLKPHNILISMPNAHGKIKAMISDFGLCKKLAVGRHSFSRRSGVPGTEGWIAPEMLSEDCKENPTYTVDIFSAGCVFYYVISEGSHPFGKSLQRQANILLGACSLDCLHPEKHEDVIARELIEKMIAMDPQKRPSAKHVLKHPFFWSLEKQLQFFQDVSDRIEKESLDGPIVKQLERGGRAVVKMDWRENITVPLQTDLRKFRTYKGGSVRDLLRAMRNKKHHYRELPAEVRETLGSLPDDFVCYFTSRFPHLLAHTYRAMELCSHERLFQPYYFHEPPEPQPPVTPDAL

FGFR3 (human) = FGFR3 (human) (UniProt P22607)
HIPK1 (human) = HIPK1 (human) (UniProt Q86Z02)
Sequence of HIPK1 (human) (Q86Z02 whole entry, looked up): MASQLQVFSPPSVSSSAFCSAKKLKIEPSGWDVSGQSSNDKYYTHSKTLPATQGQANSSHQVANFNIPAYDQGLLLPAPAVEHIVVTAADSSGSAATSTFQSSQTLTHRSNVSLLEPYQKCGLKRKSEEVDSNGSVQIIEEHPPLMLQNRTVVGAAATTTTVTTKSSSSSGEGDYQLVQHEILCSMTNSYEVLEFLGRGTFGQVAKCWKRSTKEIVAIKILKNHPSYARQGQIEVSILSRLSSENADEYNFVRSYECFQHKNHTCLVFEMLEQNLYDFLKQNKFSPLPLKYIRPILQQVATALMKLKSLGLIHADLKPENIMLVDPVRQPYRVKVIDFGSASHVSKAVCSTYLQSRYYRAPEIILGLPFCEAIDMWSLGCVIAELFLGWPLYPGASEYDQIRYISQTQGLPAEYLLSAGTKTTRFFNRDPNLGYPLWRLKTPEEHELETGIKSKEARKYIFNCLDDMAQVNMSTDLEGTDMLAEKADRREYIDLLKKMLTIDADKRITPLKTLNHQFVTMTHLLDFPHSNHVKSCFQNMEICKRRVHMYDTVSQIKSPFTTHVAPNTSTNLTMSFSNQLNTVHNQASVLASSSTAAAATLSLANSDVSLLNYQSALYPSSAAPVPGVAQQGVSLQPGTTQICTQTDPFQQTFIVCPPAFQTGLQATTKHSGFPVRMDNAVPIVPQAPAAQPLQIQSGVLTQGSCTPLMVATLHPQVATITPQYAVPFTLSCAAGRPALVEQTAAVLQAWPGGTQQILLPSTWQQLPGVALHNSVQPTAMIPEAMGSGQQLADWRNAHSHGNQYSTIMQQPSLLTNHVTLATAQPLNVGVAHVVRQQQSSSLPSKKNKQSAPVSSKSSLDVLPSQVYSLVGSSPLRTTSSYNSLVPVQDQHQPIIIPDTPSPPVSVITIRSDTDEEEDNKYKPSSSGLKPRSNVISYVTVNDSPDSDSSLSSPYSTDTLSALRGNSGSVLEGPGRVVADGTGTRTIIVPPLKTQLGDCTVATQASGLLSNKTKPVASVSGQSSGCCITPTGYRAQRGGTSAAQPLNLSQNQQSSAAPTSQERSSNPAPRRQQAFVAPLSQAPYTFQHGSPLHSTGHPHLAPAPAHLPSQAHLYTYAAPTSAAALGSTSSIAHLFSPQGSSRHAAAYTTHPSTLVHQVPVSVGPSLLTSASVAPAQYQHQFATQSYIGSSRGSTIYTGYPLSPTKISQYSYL

KDR (human) = KDR (human) (UniProt P35968)
LATS2 (human) = LATS2 (human) (UniProt Q9NRM7)
MAP2K1 (human) = MAP2K1 (human) (UniProt Q02750)
MAP3K4 (human) = MAP3K4 (human) (UniProt Q9Y6R4)
MAP4K3 (human) = MAP4K3 (human) (UniProt Q8IVH8)
Sequence of MAP4K3 (human) (Q8IVH8 whole entry, looked up): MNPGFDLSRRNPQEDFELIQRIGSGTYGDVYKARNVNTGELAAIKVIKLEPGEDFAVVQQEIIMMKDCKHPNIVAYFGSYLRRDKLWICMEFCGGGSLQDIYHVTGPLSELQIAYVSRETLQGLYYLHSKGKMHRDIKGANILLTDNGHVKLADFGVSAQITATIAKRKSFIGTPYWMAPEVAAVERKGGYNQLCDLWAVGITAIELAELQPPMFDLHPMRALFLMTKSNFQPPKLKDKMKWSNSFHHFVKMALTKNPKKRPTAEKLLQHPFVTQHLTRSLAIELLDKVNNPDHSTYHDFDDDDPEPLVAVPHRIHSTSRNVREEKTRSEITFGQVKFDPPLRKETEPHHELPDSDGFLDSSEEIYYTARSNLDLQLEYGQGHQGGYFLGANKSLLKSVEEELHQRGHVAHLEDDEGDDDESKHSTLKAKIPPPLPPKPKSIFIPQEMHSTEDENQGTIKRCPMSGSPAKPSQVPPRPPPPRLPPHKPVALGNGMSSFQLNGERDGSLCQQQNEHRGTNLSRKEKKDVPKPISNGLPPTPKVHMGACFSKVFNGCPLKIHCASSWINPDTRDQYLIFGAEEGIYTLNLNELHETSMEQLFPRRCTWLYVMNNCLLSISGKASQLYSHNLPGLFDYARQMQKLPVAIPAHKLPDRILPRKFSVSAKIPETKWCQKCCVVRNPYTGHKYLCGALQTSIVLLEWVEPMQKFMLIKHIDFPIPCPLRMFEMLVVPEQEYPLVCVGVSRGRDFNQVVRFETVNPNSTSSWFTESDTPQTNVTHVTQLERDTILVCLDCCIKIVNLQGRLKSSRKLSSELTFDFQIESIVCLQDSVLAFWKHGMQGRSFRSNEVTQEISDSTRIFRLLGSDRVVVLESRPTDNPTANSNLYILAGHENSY

MAPK10 (human) = MAPK10 (human) (UniProt P53779)
MAPK7 (human) = MAPK7 (human) (UniProt Q13164)
MKNK1 (human) = MKNK1 (human) (UniProt Q9BUB5)
PAK4 (human) = PAK4 (human) (UniProt O96013)
PIM3 (human) = PIM3 (human) (UniProt Q86V86)
PKN1 (human) = PKN1 (human) (UniProt Q16512)
PLK3 (human) = PLK3 (human) (UniProt Q9H4B4)
PRKCD (human) = PRKCD (human) (UniProt Q05655)
PRKD1 (human) = PRKD1 (human) (UniProt Q15139)
PTK2 (human) = PTK2 (human) (UniProt Q05397)
RAF1 (human) = RAF1 (human) (UniProt P04049)
ROCK2 (human) = ROCK2 (human) (UniProt O75116)
SNRK (human) = SNRK (human) (UniProt Q9NRH2)
Sequence of SNRK (human) (Q9NRH2 whole entry, looked up): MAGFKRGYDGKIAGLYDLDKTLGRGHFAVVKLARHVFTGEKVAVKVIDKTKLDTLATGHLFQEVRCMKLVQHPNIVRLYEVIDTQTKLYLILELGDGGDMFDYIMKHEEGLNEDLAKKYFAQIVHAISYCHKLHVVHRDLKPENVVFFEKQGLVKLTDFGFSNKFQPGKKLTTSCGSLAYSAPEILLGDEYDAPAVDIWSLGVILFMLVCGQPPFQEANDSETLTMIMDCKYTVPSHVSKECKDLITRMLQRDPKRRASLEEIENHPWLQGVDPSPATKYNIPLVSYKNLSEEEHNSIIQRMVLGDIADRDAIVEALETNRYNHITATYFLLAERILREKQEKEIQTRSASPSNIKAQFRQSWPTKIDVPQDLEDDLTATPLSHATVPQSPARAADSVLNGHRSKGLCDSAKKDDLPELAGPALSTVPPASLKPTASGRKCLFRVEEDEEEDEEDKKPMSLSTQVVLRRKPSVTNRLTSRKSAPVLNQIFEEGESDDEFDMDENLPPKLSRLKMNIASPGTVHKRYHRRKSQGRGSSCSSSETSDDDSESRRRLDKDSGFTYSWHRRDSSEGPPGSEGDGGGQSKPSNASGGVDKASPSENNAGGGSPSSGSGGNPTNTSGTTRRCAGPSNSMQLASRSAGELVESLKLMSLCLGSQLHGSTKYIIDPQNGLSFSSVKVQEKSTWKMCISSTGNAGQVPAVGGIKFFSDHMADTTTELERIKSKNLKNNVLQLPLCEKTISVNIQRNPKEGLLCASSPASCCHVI

TNK1 (human) = TNK1 (human) (UniProt Q13470)
Sequence of TNK1 (human) (Q13470 whole entry, looked up): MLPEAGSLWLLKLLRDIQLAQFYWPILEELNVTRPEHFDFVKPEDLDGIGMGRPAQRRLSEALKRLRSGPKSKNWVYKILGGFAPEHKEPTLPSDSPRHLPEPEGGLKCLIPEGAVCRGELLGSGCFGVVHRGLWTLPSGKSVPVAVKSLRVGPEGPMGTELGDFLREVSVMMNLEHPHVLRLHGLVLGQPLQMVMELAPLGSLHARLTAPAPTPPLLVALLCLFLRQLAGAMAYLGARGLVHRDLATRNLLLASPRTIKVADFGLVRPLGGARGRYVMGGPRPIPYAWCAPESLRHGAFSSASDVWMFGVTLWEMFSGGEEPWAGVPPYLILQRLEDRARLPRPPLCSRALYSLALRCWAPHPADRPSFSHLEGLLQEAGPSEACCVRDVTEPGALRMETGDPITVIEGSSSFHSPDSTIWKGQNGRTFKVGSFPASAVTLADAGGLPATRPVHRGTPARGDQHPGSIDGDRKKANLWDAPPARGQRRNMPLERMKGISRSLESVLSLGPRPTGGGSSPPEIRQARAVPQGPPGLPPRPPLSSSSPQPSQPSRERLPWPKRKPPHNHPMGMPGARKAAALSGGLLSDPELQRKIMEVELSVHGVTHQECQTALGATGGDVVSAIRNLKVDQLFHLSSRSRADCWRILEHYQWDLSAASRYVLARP

TNNI3K (human) = TNNI3K (human) (UniProt Q59H18)
ULK1 (human) = ULK1 (human) (UniProt O75385)
ULK3 (human) = ULK3 (human) (UniProt Q6PHR2)
Sequence of ULK3 (human) (Q6PHR2 whole entry, looked up): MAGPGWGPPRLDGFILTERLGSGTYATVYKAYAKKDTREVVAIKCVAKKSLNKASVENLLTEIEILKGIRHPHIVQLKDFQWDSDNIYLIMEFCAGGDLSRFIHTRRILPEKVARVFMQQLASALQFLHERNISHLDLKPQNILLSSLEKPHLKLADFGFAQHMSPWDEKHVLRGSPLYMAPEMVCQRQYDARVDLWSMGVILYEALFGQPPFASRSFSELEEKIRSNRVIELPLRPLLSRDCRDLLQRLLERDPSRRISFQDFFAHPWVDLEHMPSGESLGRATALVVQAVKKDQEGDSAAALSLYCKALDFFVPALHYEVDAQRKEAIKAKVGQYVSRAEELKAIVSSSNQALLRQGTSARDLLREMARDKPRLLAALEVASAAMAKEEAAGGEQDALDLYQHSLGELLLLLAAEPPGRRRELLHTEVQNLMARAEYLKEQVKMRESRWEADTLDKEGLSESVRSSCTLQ

WEE2 (human) = WEE2 (human) (UniProt P0C1S8)
GSK3B (human) = GSK3B (human) (UniProt P49841)

Row | SMILES | kinase still bound, per cent of control (BMPR1B (human)) [%] | kinase still bound, per cent of control (CAMK1G (human)) [%] | kinase still bound, per cent of control (CDK13 (human)) [%] | kinase still bound, per cent of control (CDK4 CCND1 (human)) [%] | kinase still bound, per cent of control (CHEK1 (human)) [%] | kinase still bound, per cent of control (CLK1 (human)) [%] | kinase still bound, per cent of control (CSNK1G3 (human)) [%] | kinase still bound, per cent of control (DAPK3 (human)) [%] | kinase still bound, per cent of control (DCLK2 (human)) [%] | kinase still bound, per cent of control (EPHA5 (human)) [%] | kinase still bound, per cent of control (EPHB2 (human)) [%] | kinase still bound, per cent of control (ERN1 (human)) [%] | kinase still bound, per cent of control (FGFR3 (human)) [%] | kinase still bound, per cent of control (HIPK1 (human)) [%] | kinase still bound, per cent of control (LATS2 (human)) [%] | kinase still bound, per cent of control (MAP2K1 (human)) [%] | kinase still bound, per cent of control (MAP3K4 (human)) [%] | kinase still bound, per cent of control (MAP4K3 (human)) [%] | kinase still bound, per cent of control (MAPK10 (human)) [%] | kinase still bound, per cent of control (MAPK7 (human)) [%] | other results
1 | N#CCNC(=O)c1ccc(-c2ccnc(Nc3ccc(N4CCOCC4)cc3)n2)cc1 | 85 | 30 | 91 | 13 | 100 | 9.6 | 100 | 11 | 55 | 87 | 100 | 100 | 86 | 8.9 | 74 | 100 | 92 | 57 | 2.4 | 48 | kinase still bound, per cent of control (BLK (human)): 100%; kinase still bound, per cent of control [1]: 70%; kinase still bound, per cent of control (KDR (human)): 99%; kinase still bound, per cent of control (MKNK1 (human)): 84%; kinase still bound, per cent of control (PAK4 (human)): 100%; kinase still bound, per cent of control (PIM3 (human)): 100%; kinase still bound, per cent of control (PKN1 (human)): 66%; kinase still bound, per cent of control (PLK3 (human)): 11%; kinase still bound, per cent of control (PRKCD (human)): 54%; kinase still bound, per cent of control (PRKD1 (human)): 22%; kinase still bound, per cent of control (PTK2 (human)): 85%; kinase still bound, per cent of control (RAF1 (human)): 100%; kinase still bound, per cent of control (ROCK2 (human)): 0.7%; kinase still bound, per cent of control (SNRK (human)): 89%; kinase still bound, per cent of control (TNK1 (human)): 33%; kinase still bound, per cent of control (TNNI3K (human)): 100%; kinase still bound, per cent of control (ULK1 (human)): 40%; kinase still bound, per cent of control (ULK3 (human)): 0.25%; kinase still bound, per cent of control (WEE2 (human)): 100%
2 | COCC(=O)NC/C=C/c1ccc2ncnc(Nc3ccc(Oc4ccc(C)nc4)c(C)c3)c2c1 | 74 | 96 | 100 | 100 | 90 | 90 | 100 | 96 | 100 | 100 | 100 | 82 | 100 | 88 | 100 | 9.4 | 97 | 80 | 68 | 100 | kinase still bound, per cent of control (BLK (human)): 62%; kinase still bound, per cent of control (GSK3B (human)): 68%; kinase still bound, per cent of control (KDR (human)): 100%; kinase still bound, per cent of control (MKNK1 (human)): 100%; kinase still bound, per cent of control (PAK4 (human)): 87%; kinase still bound, per cent of control (PIM3 (human)): 100%; kinase still bound, per cent of control (PKN1 (human)): 100%; kinase still bound, per cent of control (PLK3 (human)): 99%; kinase still bound, per cent of control (PRKCD (human)): 87%; kinase still bound, per cent of control (PRKD1 (human)): 85%; kinase still bound, per cent of control (RAF1 (human)): 100%; kinase still bound, per cent of control (ROCK2 (human)): 100%; kinase still bound, per cent of control (SNRK (human)): 71%; kinase still bound, per cent of control (TNK1 (human)): 86%; kinase still bound, per cent of control (TNNI3K (human)): 100%; kinase still bound, per cent of control (ULK1 (human)): 47%; kinase still bound, per cent of control (ULK3 (human)): 68%; kinase still bound, per cent of control (WEE2 (human)): 81%
3 | CNC(=O)c1cc(Oc2ccc(NC(=O)Nc3ccc(Cl)c(C(F)(F)F)c3)cc2)ccn1 | 98 | 99 | 86 | 65 | 91 | 23 | 91 | 88 | 100 | 30 | 17 | 74 | 31 | 13 | 85 | 100 | 98 | 54 | 100 | 85 | kinase still bound, per cent of control (BLK (human)): 31%; kinase still bound, per cent of control (GSK3B (human)): 100%; kinase still bound, per cent of control (MKNK1 (human)): 2.1%; kinase still bound, per cent of control (PAK4 (human)): 91%; kinase still bound, per cent of control (PIM3 (human)): 80%; kinase still bound, per cent of control (PKN1 (human)): 99%; kinase still bound, per cent of control (PRKCD (human)): 100%; kinase still bound, per cent of control (PRKD1 (human)): 32%; kinase still bound, per cent of control (PTK2 (human)): 99%; kinase still bound, per cent of control (RAF1 (human)): 0.05%; kinase still bound, per cent of control (ROCK2 (human)): 88%; kinase still bound, per cent of control (SNRK (human)): 100%; kinase still bound, per cent of control (TNK1 (human)): 37%; kinase still bound, per cent of control (TNNI3K (human)): 19%; kinase still bound, per cent of control (ULK1 (human)): 100%; kinase still bound, per cent of control (ULK3 (human)): 92%; kinase still bound, per cent of control (WEE2 (human)): 87%
4 | COc1cc2ncn(-c3cc(OCc4ccccc4C(F)(F)F)c(C(N)=O)s3)c2cc1OC | 64 | 72 | 76 | 91 | 100 | 36 | 100 | 19 | 99 | 90 | 94 | 75 | 20 | 84 | 50 | 67 | 90 | 32 | 89 | 100 | kinase still bound, per cent of control [1]: 100%; kinase still bound, per cent of control (GSK3B (human)): 100%; kinase still bound, per cent of control (KDR (human)): 76%; kinase still bound, per cent of control (MKNK1 (human)): 88%; kinase still bound, per cent of control (PAK4 (human)): 100%; kinase still bound, per cent of control (PIM3 (human)): 63%; kinase still bound, per cent of control (PKN1 (human)): 76%; kinase still bound, per cent of control (PLK3 (human)): 0%; kinase still bound, per cent of control (PRKCD (human)): 100%; kinase still bound, per cent of control (PRKD1 (human)): 100%; kinase still bound, per cent of control (PTK2 (human)): 83%; kinase still bound, per cent of control (RAF1 (human)): 87%; kinase still bound, per cent of control (ROCK2 (human)): 100%; kinase still bound, per cent of control (SNRK (human)): 83%; kinase still bound, per cent of control (TNK1 (human)): 36%; kinase still bound, per cent of control (TNNI3K (human)): 81%; kinase still bound, per cent of control (ULK1 (human)): 92%; kinase still bound, per cent of control (ULK3 (human)): 77%; kinase still bound, per cent of control (WEE2 (human)): 100%
